Holding throughout (assay type): cell-based, human
Experiment [1] relates to HUVEC tube formation. As to the kind of experiment: Endothelial tube assay (number of tubes, three-dimensional collagen gels). The procedure:
In this model, endothelial cells are suspended in a three-dimensional collagen lattice of type I collagen and undergo rapid morphogenesis. Within 4 hr numerous vacuoles are observed in the majority of endothelial cells; at 24 hr the formation of tube-like structures can be observed and at 48 hr an interconnected network of tube-like structures is observed.
Collagen gels were formed by mixing together ice-cold gelatin solution (10× M199, H2O, 0.53M NaHCO3, 200 mM L-glutamine, type I collagen, 0.1M NaOH, 100:27.2:50:10:750:62.5 by volume) and cells in 1× basal medium at a concentration of 3×10^6 cells/ml at a ratio of 4 volumes gelatin solution: 1 volume of cells. After gelation at 37 for 30 min, the gels were overlaid with IX basal medium consisting of M199 supplemented with 1%FBS, 1× ITS, 2 mM L-glutamine, 50 μg/ml ascorbic acid, 26.5 mM NaHCO3, 100 U/ml penicillin and 100 U/mil streptomycin supplemented with 40 ng/ml BFGF, 40 ng/ml VEGF and 80 nM phorbol myristate acetate (PMA). All drugs were added to the IX basal medium immediately after gelation. To quantitate tube formation, the number of tubes per high power (20× field) was determined 48 hr after addition of the basal medium Five independent fields separated by 100 μm optical sections were assessed for each well. Cytotoxicity was assessed using an XTT kit from Boehringer Mannheim (Indianapolis, Ind.).

A further experiment concerns HUVEC proliferation. The experiment is described as follows: Proliferation assay (BrdU incorporation). Conditions: type I collagen-coated surface, VEGF, bFGF and PMA, read-out: inhibition of endothelial cell (HUVEC) proliferation, IC50. The procedure: Cells were cultured in above medium in the presence of drugs or vehicle for 4 hr. 5 μl (100 μM) of 5′-bromo-2′-deoxyuridine (BrdU) was added in a final volume of 100 μl/well and cells were incubated for another 20 hr. BrdU incorporation was evaluated by an ELISA kit from Boehringer Mannheim (Indianapolis, Ind.).
For orientation: Uptake of a labelled nucleoside into DNA is a usual measure of proliferation.

For a further experiment, the system named is Flk/KDR mRNA. As to the kind of experiment: Real time RT-PCR (Taqman) assay in HUVEC. Conditions: HUVEC in three dimensional collagen gels; VEGF, bFGF, PMA; 10:M 15d-PGJ2. The procedure:
This technique has been used to quantitatively monitor mRNA expression and has been described in detail previously (Heid, C. A. et al., (1996) Genome Methods 6:986-994; Gerber, H. et al., (1997) J. Biol. Chem. 272:23659-23667). Total RNA was extracted from HUVEC cultured in three dimensional collagen gels or on collagen-coated flasks for various times in 1× basal medium consisting of M199 supplemented with 1%FBS, 1× ITS, 2 mM L-glutamine, 50 μg/ml ascorbic acid, 26.5 mM NaHCO3, 100 U/ml penicillin and 100 U/ml streptomycin supplemented with 40 ng/ml bFGF (basic fibroblast growth factor), 40 ng/ml VEGF and 80 nM PMA […]. […] The primers and probes used were as follows: […] forward primer 5′-[…]-3′ (SEQ ID NO: 7), reverse primer 5′-CACCATCGCGACCAGATG-3′ (SEQ ID NO: 8), and probe 5′-[…]-3′ (SEQ ID NO: 9); […] forward primer 5′-TGACCTGCGGCAACTGG-3′ (SEQ ID NO: 10), reverse primer 5′-[…]-3′ (SEQ ID NO: 11), and probe 5′-[…]-3′ (SEQ ID NO: 12); human PPARβ gene forward primer 5′-[…]-3′ (SEQ ID NO: 13), reverse primer 5′-[…]-3′ (SEQ ID NO: 14), and probe 5′-[…]-3′ (SEQ ID NO: 15); human Flk/KDR gene forward primer 5′-[…]-3′ (SEQ ID NO: 16), reverse primer 5′-[…]-3′ (SEQ ID NO: 17), and probe 5′-[…]-3′ (SEQ ID NO: 18); human Flt-1 gene forward primer 5′-[…]-3′ (SEQ ID NO: 19), reverse primer 5′-[…]-3′ (SEQ ID NO: 20), and probe 5′-[…]-3′ (SEQ ID NO: 21); human uPA gene forward primer 5′-[…]-3′ (SEQ ID NO: 22), reverse primer 5′-GCGCACACCTGCCCTC-3′ (SEQ ID NO: 23), and probe 5′-[…]-3′ (SEQ ID NO: 24); human PAI-1 gene forward primer 5′-TCGTCCAGCGGGATCTGA-3′ (SEQ ID NO: 25), reverse primer 5′-GTGCTCCGGAACAGCCTG-3′ (SEQ ID NO: 26), and probe 5′-[…]-3′ (SEQ ID NO: 27); human glyceraldehyde-3-phosphate dehydrogenase (GAPDH) gene forward 5′-GAAGGTGAAGGTCGGAGTC-3′ (SEQ ID NO: 28), reverse 5′-[…]-3′ (SEQ ID NO: 29), and probe 5′-[…]-3′ (SEQ ID NO: 30). Total RNA (100 ng) was added to a 50 μl RT-PCR reaction mixture according to the manufacturer's protocol (Roche Molecular Systems, Inc., Branchburg, N.J.). The thermal cycling conditions included 1 cycle at 48° C. for 30 min, 1 cycle at 95° C. for 10 min, 40 cycles at 95° C. for 15 s, at 60° C. for 1 min and finally hold at 25° C. for 2 min. Standard curves for expression of each gene were generated by serial dilution of the total RNA isolated from HUVEC. […] Therefore, the relative mRNA expression of each gene was normalized to the level of GAPDH in the same RNA preparation.
For orientation: Quantitative PCR measures a nucleic acid by following its amplification.

Experiment [2] concerns HUVEC tube formation. As to the kind of experiment: Endothelial tube assay of Example 7 (average tube length, 3-D type I collagen gels). As to conditions: 10 μM; 24 h; 3-D collagen gels. The procedure:
Collagen gels were formed by mixing together ice-cold gelation solution (IOX M199, H2O, 0.53M NaHCO3, 200 mM L-glutamine, type I collagen, 0.1M NaOH, 100:27.2:50:10:750:62.5 by volume) and cells in 1× basal medium (see below) at a concentration of 3×10^6 cells/ml at a ratio of 4 volumes gelation solution: 1 volume of cells (18). After gelation at 37° C. for 30 min, the gels were overlaid with 1× basal medium consisting of M199 supplemented with […], 1× ITS, 2 mM L-glutamine, […] ascorbic acid, 26.5 mM NaHCO3, 100 U/ml penicillin and 100 U/ml streptomycin supplemented with 40 ng/ml bFGF, 40 ng/ml VEGF, 80 nM PMA or the combination of PMA (80 nM), bFGF and VEGF (40 ng/ml each). All drugs were added to the 1× basal medium immediately after gelation. To quantify tube formation, the average tube length was determined by measuring total tube length (long axis) in three consecutive layers of a low power (10×) field using Openlab software (Improvision Inc, England). Each layer was separated by 100 μm.

Take `CCCCC/C=C/C=C1/C(=O)C=CC1C/C=C\CCCC(=O)O` (centres unmarked) [15d-PGJ2, 15-deoxy-delta^12,14-PGJ2]: in the experiment on HUVEC tube formation [1] (10 μM, 48 hr), the “effect on tube formation (FIG. 1B)” value is given as “inhibitory effects”. Besides, the IC50 with HUVEC tube formation [1] (HUVEC in collagen gels with bFGF, VEGF and PMA, tubes counted at 48 hr, read-out: inhibition of tube formation, IC50) stood at 2.8 µM; with HUVEC proliferation, 2.4 µM. Moreover, in the experiment on Flk/KDR mRNA, the “KDR mRNA induction by growth factors” value is on record as “inhibited the induction”. Moreover, the “PMA or PMA in combination with bFGF and VEGF induced HUVEC tube formation” value in the experiment with HUVEC tube formation [2] is “blocked”.

These data come from patent publication US20010036955A1, “Method of inhibiting angiogenesis” (Genentech, Inc., priority 1998, published 2001).
